The values that follow come from patent US20190062788A1, “LIPID NANOPARTICLE METHODS AND COMPOSITIONS FOR PRODUCING ENGINEERED ERYTHROID CELLS” (RUBIUS THERAPEUTICS, INC., priority 2017, published 2019).

No end group written: not given here. *: point of attachment. FITC = O=C1OC2(c3ccc(O)cc3Oc3cc(O)ccc32)c2ccc(NC(=S)*)cc21

Test [1] relates to erythroid cells. Kind of test: Uptake of labelled transferrin receptor-binding peptide into erythroid cells, fluorescence microscopy. The settings on record: added at day M2, about 1 mg/ml, 72 hours, 37 degrees. The test is classed as cell-based. On the procedure:
Uptake of a transferrin-binding peptide was also tested. Wild-type CD34+ cells were differentiated as described herein. At day M2 of maturation/differentiation, FITC-LC-HAIYPRH (a fluorescently labelled peptide that binds the transferrin receptor) was added to a culture of about 0.5×10^6 cells at about 1 mg/ml. The labeled peptide was obtained from Anapsec. The cells were cultured in the presence of the labeled peptide for 72 hours at 37 degrees. Internalization of the FITC-LC-HAIYPRH labeled polypeptide by erythroid cells was confirmed by fluorescence microscopy.

Test [2] relates to erythroid cells undergoing maturation. Kind of test: Uptake of Alexa488-labeled transferrin by erythroid cells during maturation. The test is classed as cell-based. The settings on record: 1 mg/ml in complete media, 0-24 hours, 37 or 4 degrees; days M1, M4, M5, M6. On the procedure:
In this example, transferrin receptor (CD71; also referred to herein as TRF) was evaluated for internalization into erythroid cells undergoing maturation. Briefly, wild-type CD34+ cells were differentiated as described herein. Samples of about 0.5×10^6 cells were taken on days M1, M4, M5, and M6 of maturation. […] The cells were incubated with the TRF-Alexa488 at a concentration of 1 mg/ml in complete media for 0-24 hours at 37 degrees or 4 degrees as indicated in FIG. 2.

Regarding “FITC-LC-HAIYPRH: a fluorescently labelled peptide that binds the transferrin receptor, obtained from Anapsec ({FITC-LC}-HAIYPRH)”, the “Internalization of labeled polypeptide by erythroid cells” value in test [1] is on record as “confirmed”.
For “TFR-Alexa488: Alexa488-labeled transferrin obtained from Thermo Fisher Scientific (#T13342)”, the Transferrin internalization result in test [2] is “active throughout the maturation phase”.
